Assay results from patent US4873331A, “Noradamantyl-carboxylic acid piperazinoalkyl esters” (American Home Products Corporation, priority 1988, dated 1989).

How the values were obtained:
[1] = background statement, Barone et al., 1986; cited from earlier work
[2] = molecular target: T1, 5-HT1A serotonin receptor subtype (Rattus norvegicus, UniProt P19327); test: Affinity for 5-HT1A receptor sites, displacement of 3H-8-OH DPAT (Hall et al.); assay type: binding; conditions: for inhibition at 1 µM: 1 μM test compound
T1 construct: from tissue
T1 sequence (P19327 1-422): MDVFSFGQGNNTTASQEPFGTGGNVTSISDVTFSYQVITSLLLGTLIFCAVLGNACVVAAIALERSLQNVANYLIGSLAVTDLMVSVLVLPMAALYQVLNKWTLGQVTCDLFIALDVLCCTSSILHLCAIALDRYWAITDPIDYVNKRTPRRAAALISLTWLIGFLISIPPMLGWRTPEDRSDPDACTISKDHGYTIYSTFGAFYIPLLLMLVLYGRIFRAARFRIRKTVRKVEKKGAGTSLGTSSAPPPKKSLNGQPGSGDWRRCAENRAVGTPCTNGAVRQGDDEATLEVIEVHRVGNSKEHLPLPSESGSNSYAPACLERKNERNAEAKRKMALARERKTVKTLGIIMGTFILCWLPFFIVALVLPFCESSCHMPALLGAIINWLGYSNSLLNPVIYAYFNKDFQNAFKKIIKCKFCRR
Description: The serotoninergic properties of the compounds of this invention were established by the procedure of Hall et al., J. Neurochem.

M1 muscarinic receptor = molecular target: T2, M1 muscarinic receptor (Rattus norvegicus, UniProt P08482); test: M1 muscarinic receptor binding, [3H] pirenzipine, rat hippocampus
T2 construct: from tissue; host or cells: rat hippocampus
T2 sequence (P08482 1-460): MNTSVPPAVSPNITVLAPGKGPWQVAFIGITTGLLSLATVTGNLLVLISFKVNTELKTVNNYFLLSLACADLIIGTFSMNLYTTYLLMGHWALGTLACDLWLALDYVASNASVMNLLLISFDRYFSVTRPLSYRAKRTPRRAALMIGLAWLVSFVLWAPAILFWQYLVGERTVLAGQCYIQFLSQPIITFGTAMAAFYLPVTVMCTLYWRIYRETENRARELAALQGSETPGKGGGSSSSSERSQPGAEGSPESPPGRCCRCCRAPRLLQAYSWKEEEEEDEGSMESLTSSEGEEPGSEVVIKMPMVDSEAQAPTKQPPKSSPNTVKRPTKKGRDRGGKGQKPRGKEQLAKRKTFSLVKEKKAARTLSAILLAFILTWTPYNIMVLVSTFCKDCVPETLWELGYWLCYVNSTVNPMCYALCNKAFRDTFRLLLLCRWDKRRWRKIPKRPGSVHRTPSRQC
Method: The M1 muscarinic receptor binding properties of the compounds of this invention were established as follows:
Homogenized rat hippocampus tissue is suspended in 0.32M aqueous sucrose solution and centrifuged (747×g for 10 minutes at 4° C.) and the supernatent liquid is decanted and recentrifuged (18,677×g for 20 minutes at 4° C.). The resulting pellet is resuspended in the original volume of 0.32M aqueous sucrose. The sample is then diluted 1:2 in 10 mM Na2 HPO4 /KH2 PO4 buffer (pH=7.4). A 100 μl sample of the buffered tissue suspension is incubated at 25° C. for 60 minutes in the dark with 10 μl of test compound or vehicle for control and [^3 H] pirenzipine (0.5 nM, 0.04 μCi) q.s. 1 milliliter with the buffer solution. Atropine sulfate (2 μM) is added to half the samples being processed. Binding is terminated by vacuum filtration onto Whatman GF/B filters which are washed three times with the buffer solution (3 ml/wash, 4° C.). […] Specific ]^3 H] PZ binding is defined as total binding minus binding in the presence of 2 μM atropine sulfate.

M2 muscarinic receptor = molecular target: T3, M2 muscarinic receptor (Rattus norvegicus, UniProt P10980); test: M2 receptor binding, [3H] quinuclidinyl benzilate, rat cerebellum; conditions: [3H] quinuclidinyl benzilate 0.23 nM, 37° C., 60 minutes
T3 construct: Homogenized rat cerebellum tissue; from tissue; host or cells: rat cerebellum
T3 sequence (P10980 1-466): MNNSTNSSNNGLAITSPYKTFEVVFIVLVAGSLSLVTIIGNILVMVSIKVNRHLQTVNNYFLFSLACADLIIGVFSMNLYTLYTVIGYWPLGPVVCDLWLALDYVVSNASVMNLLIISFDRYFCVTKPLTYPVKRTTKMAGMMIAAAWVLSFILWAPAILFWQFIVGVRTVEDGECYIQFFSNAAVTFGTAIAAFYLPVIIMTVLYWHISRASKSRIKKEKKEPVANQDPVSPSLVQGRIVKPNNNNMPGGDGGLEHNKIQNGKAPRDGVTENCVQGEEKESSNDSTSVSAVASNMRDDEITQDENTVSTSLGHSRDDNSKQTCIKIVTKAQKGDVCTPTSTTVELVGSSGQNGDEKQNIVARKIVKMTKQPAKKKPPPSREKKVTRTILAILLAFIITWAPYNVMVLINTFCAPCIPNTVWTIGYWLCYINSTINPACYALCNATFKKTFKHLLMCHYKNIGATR

[3] = molecular target: T4, limbic D2 (dopamine) receptor (Rattus norvegicus, UniProt P61169); test: Affinity for D2 receptor sites, inhibition of 3H-spiroperidol binding to limbic brain tissue; conditions: 1 μM test compound
T4 construct: from tissue; host or cells: limbic brain tissue
T4 sequence (P61169 whole entry): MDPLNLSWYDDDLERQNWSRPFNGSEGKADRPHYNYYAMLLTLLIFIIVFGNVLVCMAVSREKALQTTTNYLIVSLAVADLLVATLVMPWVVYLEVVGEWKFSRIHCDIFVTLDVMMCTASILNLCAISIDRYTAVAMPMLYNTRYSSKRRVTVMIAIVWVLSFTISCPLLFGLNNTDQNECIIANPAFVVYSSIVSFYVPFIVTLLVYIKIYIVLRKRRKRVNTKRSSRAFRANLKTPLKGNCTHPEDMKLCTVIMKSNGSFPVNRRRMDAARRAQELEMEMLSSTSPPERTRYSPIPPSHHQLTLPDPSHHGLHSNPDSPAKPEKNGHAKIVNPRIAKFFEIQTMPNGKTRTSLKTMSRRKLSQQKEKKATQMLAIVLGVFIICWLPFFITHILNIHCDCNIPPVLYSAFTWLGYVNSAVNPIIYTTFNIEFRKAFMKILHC

Row | inhibition at 1 µM [2] [%] | inhibition at 1 µM [3] [%] | SMILES | further results
1 |  |  | Cc1nc2sccn2c(=O)c1CCN1CCC(=C(c2ccc(F)cc2)c2ccc(F)cc2)CC1 [Ritanserin] | clinical efficacy as anxiolytic-antidepressant agents [1]: demonstrate clinical efficacy as anxiolytic-antidepressant agents
2 |  |  | O=C(OCCCN1CCN(c2ncccn2)CC1)C12CC3CC(CC1C3)C2 [Example 3, Hexahydro-2,5-methanopentalene-3a[1H]-carboxylic acid 3-[4-(2-pyrimidyl)-1-piperazinyl]propyl ester] | inhibition at 0.1 µM ([2]; 100 nM test compound): 12%; M2/M1 Ratio (M1 muscarinic receptor; IC50 M2 / IC50 M1): 81; IC50 (M1 muscarinic receptor; rat hippocampus, [3H] pirenzipine 0.5 nM, 25° C., 60 minutes): 850 nM; IC50 (M2 muscarinic receptor): 69000 nM
3 | 95 | 100 | COc1ccccc1N1CCN(CCOC(=O)C23CC4CC(CC2C4)C3)CC1 [Example 2, Hexahydro-2,5-methanopentalene-3a[1H]-carboxylic acid 2-[4-(2-methoxyphenyl)-1-piperazinyl]ethyl ester] | 
4 | 93 | 47 | O=C(OCCN1CCN(c2ncccn2)CC1)C12CC3CC(CC1C3)C2 [Example 1, Hexahydro-2,5-methanopentalene-3a[1H]-carboxylic acid 2-[4-(2-pyrimidyl)-1-piperazinyl]ethyl ester] | Ki ([2]; calculated from IC50 values): 23 nM
5 | 96 | 100 | COc1ccccc1N1CCN(CCCOC(=O)C23CC4CC(CC2C4)C3)CC1 [Example 4, Hexahydro-2,5-methanopentalene-3a[1H]carboxylic acid 3-[4-(2-methoxyphenyl)-1-piperazinyl]propyl ester] | 
